Laboratory results reported in patent publication US20020091139A1 (DAMON TODD HOLDINGS, L.L.C., priority 1997, published 2002).

Assays:
human lung = settings: ex vivo human lung; cited from earlier work
[1] = tested on: steroid-dependent asthmatics (SDA) and non-steroid-dependent asthmatics (NSDA); assay: Follow-up observations of asthmatics treated long-term with HCQ (SDA and NSDA groups); format: in vivo, human
Source text: Follow-up observations carried out over the last four years among patients treated with HCQ continue to encourage further research. In Table I and II, data concerning the course of 23 steroid-dependent asthmatics (SDA) who have been followed for at least six months on therapy is presented. Spirometric data from these patients is summarized on page 2 of Table I. In the summary, two data groups are reported: the first includes all data points generated and compares each time point with t=0; the second is restricted to the 17 patients for whom data is complete at all time points. The findings are similar for both groups: both FVC and FEV-1 increase both a significant amount (about 10%) and to a degree that is statistically significant as well (using Wilcoxon Signed-Rank probability testing). These increases occurred despite a taper in prednisone outlined in Table I and detailed in Table II. Average daily oral steroid dosage was reduced by 60%, while objective spirometric flow measures and general health improved markedly.
Changes in severity of asthma in non-steroid-dependent asthmatics (NSDA) are depicted in Table III. In Table III, spirometric flow data is presented. […] Probability testing (Wilcoxon Signed-Rank) in this group achieves significant change from baseline measures by month six and continued improvement is noted throughout the time of treatment.
2] […] In neither the NSDA group (Table I) nor in the SDA group (Table II) did spirometric flows (as measured by FEV-1) improve to a statistically significant degree at three months. […] In Table IV, data regarding the frequency of rescue-intervention in the NSDA group is reviewed. […] The course of patient, presented in Table V is illustrative of the reproducibility of the delay in onset of action seen in severe asthmatics. This patient was started on HCQ due to very labile asthma requiring frequent ER visits and oral steroid bursts (see Table VI). On HCQ they did better, but became pregnant (against medical advice) and the drug was discontinued. Subsequently, they did quite poorly necessitating restart of alternate-day oral steroids which were maintained during the latter part of their pregnancy. HCQ was restarted at their request following delivery. Again, no clear effect in the person was noted after three months, but after seven months substantial improvement was noted despite appreciable reduction in the dose of their alternate-daily oral steroids.
In patients with normal IgE levels, changes were not significant either in amount (19%) nor by statistical criteria. Significant declines in IgE were virtually completely confined to that segment of the patients who entered treatment with elevated IgE levels. […] These clinical observations are supported by in vitro studies carried out recently by Seggev and co-workers. […] J Immunol 1993;150(8):62A.

[2] = tested on: T-cells and monocytes; human macrophages; settings: cited from earlier work
[3] = tested on: neutrophil superoxide production; settings: also in peripheral blood monocytes; cited from earlier work
influenza and adenovirus = settings: personal communication; cited from earlier work
[4] = tested on: severe symptomatic non-steroid dependent and steroid-dependent asthmatics; assay: Open label 28-week trial of HCQ in severe asthma; format: in vivo, human; settings: for mean IgE level: ten patients
Description: Annals of Allergy 1992;68(1):80 (abstract #40). The initial trial involved four severe symptomatic non-steroid dependent and seven steroid-dependent asthmatics in an open label 28-week trial at doses of 300-400 mg/d. Evaluation measures included daily symptom diary scores of six symptoms, subjective global evaluation, spirometric flow studies, and cumulative monthly steroid dosages.

HIV virus = settings: T cells and monocytes; cited from earlier work
symptomatic asthmatics = assay: Double blind placebo-controlled 30-week trial of HCQ in moderate symptomatic asthma; format: in vivo, human
Source text: Symptomatic asthmatics (mean duration>11 years) on stable doses of at least 6 puffs of inhaled steroid per day and p.r.n. bronchodilator (BD) were studied. […] Changes from baseline mean FEV-1 comprised the primary efficacy variable. Other objective variables included daily peak flows, BD usage and setum IgE level; symptom scores and physician global (safety and tolerance) assessments were also obtained. Subjective efficacy variables (rated from 0-3) include breathing restrictions (wheezing, coughing, chest tightness and/or breathlessness), revived need for BD at 6 hours, and nocturnal asthma.

platelet aggregation = settings: cited from earlier work
[5] = steroid-dependent asthmatics, at least six months on therapy
[6] = group as a whole, 28 weeks, 300-400 mg/d, p<0.01
[7] = non-steroid-dependent asthmatics, p<0.05
[8] = steroid-dependent patients, not significant

CCN(CCO)CCCC(C)Nc1ccnc2cc(Cl)ccc12 (stereo not shown) [HCQ, Hydroxychloroquine]
histamine release (human lung): inhibits | leukotriene release (human lung): inhibits | forced vital capacity and FEV-1 ([1]; 11 non-steroid-dependent asthmatics, significant from month six): very significant improvements | rescue-interventions (normalized rates) ([1]; NSDA group, until after three months therapy): no significant fall | decrease in serum IgE levels ([1]; patients in general, pre- vs post-treatment): ~40% | change in serum IgE levels ([1]; patients with normal IgE levels, not significant): 19% | onset of significant effects ([1]; severe asthmatics): only after three months | reduction of average daily oral steroid dosage ([1]; steroid-dependent asthmatics): 60% | FEV-1 increase [1, 5]: about 10% | FVC increase [1, 5]: about 10% | release of IL-1 and IL-6 ([2]; T-cells and monocytes in vitro): inhibit | release of tumor necrosis factor ([2]; human macrophages in vitro): inhibit | neutrophil superoxide production and release [3]: markedly reduce | infection by influenza and adenovirus (influenza and adenovirus): inhibits | effect on plasma theophylline levels ([4]; drug interaction): no significant effect | mean IgE level ([4]; during treatment, p<0.05): 339 IU/ml | mean FEV-1 increase [4, 6]: 17% | mean FVC increase [4, 6]: 10% | mean of each of six symptom scores ([4]; group as a whole, p<0.05): declined significantly | mean FEV-1 rise [4, 7]: 32% | mean FVC rise [4, 7]: 19% | mean symptom scores for four of five symptoms [4, 7]: declined from baseline | mean IgE level ([4]; pretreatment): 645 IU/ml | cumulative mean monthly steroid dosage required ([4]; steroid-dependent patients, at entry): 383 mg | cumulative mean monthly steroid dosage required ([4]; steroid-dependent patients, at week 28): 191 mg | decrease of cumulative mean monthly steroid dosage required ([4]; steroid-dependent patients, entry to week 28, p<0.01): 50% | mean FEV-1 increase [4, 8]: 9% | mean FVC increase [4, 8]: 7% | symptom scores ([4]; steroid-dependent patients, p<0.05): two of five symptom scores improved | replication of HIV virus (HIV virus): actively inhibits | tolerability (symptomatic asthmatics; 30 weeks): well tolerated without notable side-effects | patients requiring oral steroid rescue interventions (symptomatic asthmatics; HCQ group n=8 (4 on placebo)): 2 patients | mean IgE level (symptomatic asthmatics; HCQ group, baseline): 240 lU/ml | mean IgE level (symptomatic asthmatics; HCQ group, on therapy): 125 lU/ml | evening peak flows rise (symptomatic asthmatics; HCQ group, p<0.04): 14.2% | mean IgE level decline (symptomatic asthmatics; HCQ group, p<0.05): 48% | BD usage fall (symptomatic asthmatics; bronchodilator usage, HCQ group, p<0.03): 18.6% | mean FEV-1 increase (symptomatic asthmatics; last 2 visits on therapy vs baseline, HCQ group n=8, p<0.05): 10.8% | effect on cholesterol (symptomatic asthmatics; sparing of HDL levels): mild hypocholesterolemic effects | platelet aggregation (platelet aggregation): inhibit
